Patent US20230330251A1, “METHODS FOR TREATING CANCERS WITH ANTIBODY DRUG CONJUGATES (ADC) THAT BIND TO 191P4D12 PROTEINS” (AGENSYS, INC., priority 2020, published 2023)

Test system: subjects with previously treated locally advanced or metastatic urothelial cancer
Test: EV-301: overall response rate, complete/partial response, disease control rate per RECIST V1.1 (response evaluable set)
Assay type: in vivo, human
Excerpt: Subjects will be evaluated for response according to the RECIST V1.1. Imaging for both arms will be performed at baseline and every 56 days (±7 days) from the first dose of study treatment throughout the study until PFS1 is documented by radiological disease progression or the subject is lost to follow-up, death, withdraws study consent or starts a subsequent anti-cancer therapy.
CR is defined as disappearance of all target and nontarget lesions. Any pathological lymph nodes (whether target or nontarget) must have reduction in short axis to <10 mm from baseline measurement.
PR is defined as at least a 30% decrease in the sum of diameters (longest for nonnodal lesions, short axis for nodal lesions) of target lesions taking as reference to the baseline sum of diameters.
SD is defined as neither sufficient decrease to qualify for PR nor sufficient increase to qualify for progressive disease taking as reference the smallest sum of diameters while on study drug.
PD is defined as at least a 20% increase in the sum of diameters (longest for nonnodal lesions, short axis for nodal lesions) of the target lesions taking as reference the smallest sum on study (this includes the baseline sum if that is the smallest on study). […] The appearance of 1 or more new lesions is also considered progression.
The response evaluable set (RES) is defined as all subjects in FAS and with measurable disease at baseline and had at least 6 months follow up since randomization. RES will be used for primary efficacy analysis of response related endpoints, e.g., ORR and DCR.
The overall response rate (ORR) is defined as the proportion of subjects with complete or partial objective response based on the RECIST V1.1. The comparison of ORR between Arm A and Arm B was performed using a stratified CMH test. Same stratification factors used in time to event analyses will be used for the stratified CMH test. […] In addition, ORR for each arm was estimated and corresponding 95% confidence interval will be constructed. The primary analysis was performed using the RES.
The DCR is defined as the proportion of subjects with a complete or partial objective response or a stable disease based on RECIST V1.1. The comparison of DCR between Arm A and Arm B was performed using a stratified CMH test. Same stratification factors used in time to event analyses were used for the stratified CMH test. […] In addition, DCR for each arm was estimated and corresponding 95% confidence interval will be constructed. The primary analysis was performed using the RES.

[1] = All, Response-Evaluable Population

## enfortumab vedotin
[1]
  ORR, EV vs SC Absolute Difference: 22.7%
  Overall response rate (ORR), %: 40.6%
  Overall response rate (ORR), n/N: 117/288
RECIST v1.1, RES
  Best overall response: Complete response, %: (4.9) %
  Best overall response: Not evaluable, %: (12.8) %
  Best overall response: Partial response, %: (35.8) %
  Best overall response: Progressive disease, %: (15.3) %
  Best overall response: Stable disease, %: (31.3) %
RES
  Time to response, Median: 1.87 months
RES, investigator assessment, N = 288 EV, 296 chemotherapy
  Overall Response Rate (ORR), Confirmed, %: (40.6%)
RES, N = 288 EV, 296 chemotherapy
  Disease control rate, Patients, %: (71.9%)
Of 288 (enfortumab vedotin) / of 296 (chemotherapy)
  complete response, number of patients: 14
response-evaluable population
  Disease control: 71.9%
  complete response, % of the patients: 4.9%
